Data from patent US20220056123A1, “USE OF IL-1BETA BINDING ANTIBODIES” (NOVARTIS AG, priority 2018, published 2022).

Experiments:
SW480 = test: CRC SW480 xenograft in humanized BLT mice; type: in vivo, humanized mouse
Procedure: (§1) • I. Tumor models: The role of IL-1β in tumor immunity and efficacy of IL-1β blocking antibodies were tested in the following preclinical models: • Xenograft tumors in humanized mouse models: NSCLC (H358), TNBC (MDA-MB231) and CRC (SW480) • Syngeneic tumor models: TNBC (4T1) and lung (LL-2) cancer • II. […] Combination treatments include chemotherapeutic agent, docetaxel (6.25 mg/Kg QW IV), PD-1 pathway inhibitors (anti-human PD-1, pembrolizumab 10 mg/Kg Q5D IP or anti-mouse PD-1, clone 1D2 10 mg/Kg QW IP) and anti-mouse VEGF blocking antibody (clone 4G3, 5 mg/Kg Q5D) were used in combination with anti-IL-1β antibody. Appropriate isotype controls were used. In all experiments, dosing was initiated after tumor implantation. • III. Experimental readouts: activity of therapeutic agents in preclinical models were assessed by the following: • Tumor volume was determined by measurement with calipers throughout the course of the study. Tumor weights in milligrams were determined at end of study • Immunohistochemistry analysis was performed on FFPE NSCLC (H358) xenograft tissue • Changes in immune populations in peripheral blood in CRC (SW480) xenograft humanized model and tumors in syngeneic models (4T1 and LL-2) were assessed by flow cytometry using markers for T cell, myeloid populations

[1] = Gevokizumab clinical pharmacokinetics; type: in vivo, human
hsCRP = hsCRP change after gevokizumab treatment in type 2 diabetes patients; type: in vivo, human; details: top dose 0.3 mg/kg (~20 mg) Q4W
From the text: FIG. 12. Clinical data after gevokizumab treatment (panel a) and its extrapolation to higher doses (panels b, c, and d). Adjusted percent change from baseline in hsCRP in patients in a). The hsCRP exposure-response relationship is shown in b) for six different hsCRP base line concentrations.

[2] = tested on: CD34+ blood vessels in trabecular bone; test: Bone microvasculature after suppression of IL-1β signalling; type: in vivo, BALB/c nude mice and C57BL/6 mice
Procedure: FIG. 7. IL-1β in the bone microenvironment stimulates expansion of the bone metastatic niche. Effects of adding 40 pg/ml or 5 ng/ml recombinant IL-1β to MDA-MB-231 or T47D breast cancer cells is shown in (a) and effects on adding 20 pg/ml, 40 pg/ml or 5 ng/ml IL-1B on proliferation of HS5, bone marrow, or OB1, osteoblasts, are shown in b) and c) respectively. (d) IL-1 driven alterations to the bone vasculature was measured following CD34 staining in the trabecular region of the tibiae from 10-12-week old female IL-1R1 knockout mice. […] Data are shown as mean+/−SEM, *=P<0.01, **=P<0.001, ***=P<0.0001.
FIG. 8. Suppression of IL-1β signalling affects bone integrity and vasculature. […] Data shown are mean+/−SEM, *=P<0.01, **=P<0.001, ***=P<0.0001 compared with control.
(§2) To model human breast cancer metastasis to human bone implants two human bone discs were implanted subcutaneously into 10-week old female NOD SCID mice (n=10/group) under isofluorane anaesthetic. Mice received an injection of 0.003 mg vetergesic and Septrin was added to the drinking water for 1 week following bone implantation. Mice were left for 4 weeks before injecting 1×10^5 MDA-MB-231 Luc2-TdTomato, MCF7 Luc2 or T47D Luc2 cells in 20% Martigel/79% PBS/1% toluene blue into the two hind mammary fat pads. Primary tumor growth and development of metastases was monitored weekly using an IVIS […] system (Caliper Life Sciences) following sub-cutaneous injection of 30 mg/ml D-luciferin (Invitrogen). On termination of experiments mammary tumors, circulating tumor cells, serum and bone metastases were resected. RNA was processed for downstream analysis by real time PCR, and cell lysates were taken for protein analysis and whole tissue for histology as previously described (Nutter et al., 2014; Ottewell et al., 2014a). […] Tumor cells, serum, and bone were subsequently resected for downstream analysis. Bone metastases were investigated following injection of 5×10^5 MDA-MB-231 GFP (control), MDA-MB-231-IV, MDA-MB-231-IL-1B-positive or MDA-MB-231-IL-1R1-positive cells into the lateral tail vein of 6 to 8-week old female BALB/c nude mice (n=12/group). Tumor growth in bones and lungs was monitored weekly by GFP imaging in live animals. Mice were culled 28 days after tumor cell injection at which timepoint hind limbs, lungs and serum were resected and processed for microcomputed tomography imaging (pCT), histology and ELISA analysis of bone turnover markers and circulating cytokines as described (Holen et al., 2016).

[3] = tested on: MDA-MB-231Luc2-TdTomato cells; test: Spontaneous human breast cancer metastasis to human bone implants; type: in vivo, NOD SCID mice
Procedure: FIG. 4. Pharmacological blockade of IL-1B inhibits spontaneous metastasis to human bone in vivo. Female NOD-SCID mice bearing two 0.5 cm^3 pieces of human femoral bone received intra-mammary injections of MDA-MB-231Luc2-TdTomato cells. […] All animals were culled 35 days following tumour cell injection. Effects on bone metastases (a) were assessed in vivo and immediately post-mortem by luciferase imaging and confirmed ex vivo on histological sections. Data are shown as numbers of photons per second emitted 2 minutes following sub-cutaneous injection of D-luciferin. Effects on numbers of tumour cells detected in the circulation are shown in (b). *=P<0.01. **=P<0.001. ***=P<0.0001.
as §2
Whole blood was centrifuged at 10,000×g for 5 minutes and the serum removed for ELISA assays. The cell pellet was re-suspended in 5 ml of FSM lysis solution (Sigma-Aldrich, Pool, UK) to lyse red blood cells. Remaining cells were re-pelleted, washed 3× in PBS and re-suspended in a solution of PBS/10% FCS. Samples from 10 mice per group were pooled prior to isolation of TdTomato positive tumor cells using a MoFlow High performance cell sorter (Beckman Coulter, Cambridge UK) with the […] laser line from a Coherent I-90C tenable argon ion (Coherent, Santa Clara, Calif.). TdTomato fluorescence was detected by a 555LP dichroic long pass and a 580/30 nm band pass filter. Acquisition and analysis of cells was performed using Summit 4.3 software. After sorting, cells were immediately placed in RNA protect cell reagent (Ambion, Paisley, Renfrew, UK) and stored at −80° C. before RNA extraction. For counting numbers of circulating tumor cells, TdTomato fluorescence was detected using a 561 nm laser and an YL1-A filter (585/16 emission filter). Acquisition and analysis of cells was performed using Attune N×T software.

[4] = tested on: HR-positive, HER2-negative advanced breast cancer; details: added to first-line endocrine therapy with tamoxifen/NSAI plus goserelin, pre- and peri-menopausal women; cited from earlier work
LL2 = test: Anti-IL-1β in combination with docetaxel in aggressive lung model (LL2); type: in vivo, mouse
Procedure: Preclinical Data on the Efficacy of Canakinumab in Combination with Docetaxel in the Treatment of Cancer.
as §1, with “In all experiments, dosing was initiated after tumor implantation. • III.” left out

4T1 tumors = 4T1 tumors treated with 01BSUR and docetaxel; type: in vivo, Balb/c mice
Procedure: Treatment of 4T1 Tumors with 01BSUR and Docetaxel Leads to Alterations in the Tumor Microenvironment. Female Balb/c mice with 4T1 tumors implanted subcutaneously (s.c.) on the right flank were treated 8 and 15 days post-tumor implant initiating when the tumors reached about 100 mm^3 with the isotype antibody, docetaxel, 01BSUR, or a combination of docetaxel and 01BSUR. […] 5 days after the first dose, tumors were harvested and analyzed for changes to the infiltrating immune cell populations. This was done again at the end point of the study, 4 days after the second dose.
as §1

Question: With “gevokizumab: high-affinity, humanized monoclonal antibody of the IgG2 isotype to interleukin-1β” as the compound, how does the “animals with significant reduction in tumor volume” value (SW480; one of two experiments) read?
Answer: 100 % of animals

Question: What about the “animals with slower tumor growth” value (SW480; second experiment, compared to isotype control) of the same compound?
Answer: 80 % of animals

Question: What about the Bioavailability ([1]; administered subcutaneously) of the same compound?
Answer: about 56%

Question: What about the pharmacokinetic model ([1]; after subcutaneous administration) of the same compound?
Answer: linear two-compartment model with first order absorption

Question: And the “reduction of hsCRP” value (hsCRP)?
Answer: up to 45%

Question: Which “average length of CD34+ blood vessels in trabecular bone” value ([2]; IL-1Ra 1 mg/kg daily (BALB/c nude), canakinumab single dose (C57BL/6), p<0.01) does the source give for “IL-1Ra: IL-1R antagonist (Anakinra) used to inhibit IL-1β signaling” here?
Answer: reduced the average length

Question: And the “endothelin 1 concentration (ELISA)” value ([2]; compared with control, p<0.01)?
Answer: reduced concentrations

Question: What about the “VEGF concentration (ELISA)” value ([2]; compared with control, p<0.01 IL-1R antagonist, p<0.001 canakinumab) of the same compound?
Answer: reduced concentrations

Question: What about the “mice with metastasis detected in human bone implants” value ([3]; IL-1Ra 1 mg/kg daily, canakinumab sc every 14 days, from 7 days after tumor cell injection, control 7 out of 10) of the same compound?
Answer: 4 out of 10

Question: What about the “size of bone metastases” value ([3]; luciferase imaging, vs control group) of the same compound?
Answer: smaller than those detected in the control group

Question: And the “tumor cells counted in whole blood” value ([3]; placebo 108 tumor cells/ml)?
Answer: 3 tumor cells/ml

Question: With `CN(C)C(=O)c1cc2cnc(Nc3ccc(N4CCNCC4)cn3)nc2n1C1CCCC1` [ribociclib] as the compound, how does the “progression-free survival (PFS)” value [4] read?
Answer: significantly prolonged progression-free survival

Question: With `CC(=O)O[C@@]12CO[C@@H]1C[C@H](O)[C@@]1(C)C(=O)[C@H](O)C3=C(C)[C@@H](OC(=O)[C@H](O)[C@@H](NC(=O)OC(C)(C)C)c4ccccc4)C[C@@](O)([C@@H](OC(=O)c4ccccc4)[C@H]21)C3(C)C` [docetaxel] as the compound, how does the “efficacy (tumor growth)” value (LL2) read?
Answer: modest efficacy

Question: And the “granulocytic MDSC” value (4T1 tumors; 5 days after a single dose)?
Answer: decrease in granulocytic MDSC

Question: What about the “neutrophils in 4T1 tumors” value (4T1 tumors; 5 days after a single dose) of the same compound?
Answer: decrease in neutrophils

Question: And the “CD4+ and CD8+ T cells expressing TIM-3” value (4T1 tumors; four days after a second dose, vs control group)?
Answer: no change in the TIM-3 expressing cells

Question: What about the tumor growth (4T1 tumors; treated days 8 and 15 post tumor implant, vs vehicle/isotype control) of the same compound?
Answer: delay was enhanced
